Measured values reported in ChEMBL document CHEMBL4196067, “Indole in the target-based design of anticancer agents: A versatile scaffold with diverse mechanisms” (Eur J Med Chem, 2018).
pIC50, pKi: −log10 of the molar value. Values after ≈ are worked out from the molar mass of the structure shown.

Tests used:
CCRF-HSB-2 = experiment: Antiproliferative activity against human HSB2 cells by alamar blue assay; type: functional
HuT78 = experiment: Antiproliferative activity against human HUT78 cells by alamar blue assay; type: functional
Jurkat = experiment: Antiproliferative activity against human Jurkat cells by alamar blue assay; type: functional
MOLT-4 = experiment: Antiproliferative activity against human MOLT4 cells by alamar blue assay; type: functional
[1] = biological target: T1, Sigma intracellular receptor 2 (Rattus norvegicus, UniProt Q5U3Y7); experiment: Displacement of [3H]-di-o-tolylguanidine from sigma-2 receptor in rat liver membranes after 180 mins by scintillation counting method; type: cell membranes, Membrane
T1 sequence (Q5U3Y7 whole entry): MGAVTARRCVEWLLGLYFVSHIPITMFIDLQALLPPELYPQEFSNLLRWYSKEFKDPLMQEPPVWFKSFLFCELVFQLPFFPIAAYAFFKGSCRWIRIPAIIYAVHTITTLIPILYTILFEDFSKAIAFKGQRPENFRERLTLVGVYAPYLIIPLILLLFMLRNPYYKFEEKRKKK

P388 = experiment: Antiproliferative activity against mouse P388 cells; type: functional, cell-based
[2] = biological target: Serine/threonine-protein kinase pim-1 (Homo sapiens, UniProt P11309); experiment: Inhibition of PIM1 (unknown origin)
Chain of Serine/threonine-protein kinase pim-1 (P11309 whole entry): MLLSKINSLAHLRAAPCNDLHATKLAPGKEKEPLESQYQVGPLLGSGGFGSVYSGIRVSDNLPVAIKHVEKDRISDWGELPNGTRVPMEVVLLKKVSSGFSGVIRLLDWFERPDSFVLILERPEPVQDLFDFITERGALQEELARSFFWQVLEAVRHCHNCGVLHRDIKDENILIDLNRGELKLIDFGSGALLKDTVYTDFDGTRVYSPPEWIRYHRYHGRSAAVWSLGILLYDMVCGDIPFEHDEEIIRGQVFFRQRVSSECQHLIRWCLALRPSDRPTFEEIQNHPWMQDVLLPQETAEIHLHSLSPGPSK

HCT-116 = experiment: Antiproliferative activity against human HCT116 cells; type: functional, cell-based
K562 = experiment: Antiproliferative activity against human K562 cells; type: functional, cell-based
LoVo = experiment: Antiproliferative activity against human LoVo cells; type: functional, cell-based
HepG2 = experiment: Antiproliferative activity against human HepG2 cells; type: functional, cell-based
Histone deacetylase 1 = Histone deacetylase 1 (Homo sapiens, UniProt Q13547); experiment: Inhibition of HDAC1 (unknown origin)
Chain of Histone deacetylase 1 (Q13547 whole entry): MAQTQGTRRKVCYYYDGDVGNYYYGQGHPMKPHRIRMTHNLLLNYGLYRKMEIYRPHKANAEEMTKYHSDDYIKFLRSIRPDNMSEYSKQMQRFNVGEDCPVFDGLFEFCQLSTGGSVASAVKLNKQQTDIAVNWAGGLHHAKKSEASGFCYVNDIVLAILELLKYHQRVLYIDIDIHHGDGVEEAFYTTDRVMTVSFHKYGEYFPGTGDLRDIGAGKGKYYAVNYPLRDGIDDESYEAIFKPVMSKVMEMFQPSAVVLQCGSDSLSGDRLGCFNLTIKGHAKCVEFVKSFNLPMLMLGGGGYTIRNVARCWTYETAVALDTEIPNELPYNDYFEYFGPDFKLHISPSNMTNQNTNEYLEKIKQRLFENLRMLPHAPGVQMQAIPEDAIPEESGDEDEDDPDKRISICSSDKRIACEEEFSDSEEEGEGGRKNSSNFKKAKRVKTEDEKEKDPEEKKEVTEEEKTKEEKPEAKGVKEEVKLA

MCF7 [3] = experiment: Antiproliferative activity against human MCF7 cells; type: functional, cell-based
MCF7 [4] = experiment: Antiproliferative activity against human MCF7 cells after 72 hrs by SRB assay; type: functional, cell-based; settings: MCF7, 72 h
[5] = biological target: Sigma non-opioid intracellular receptor 1 (Cavia porcellus, UniProt Q60492); experiment: Displacement of [3H]-(+)-pentazocine from sigma-1 receptor in guinea pig brain membranes after 180 mins by scintillation counting method; type: cell membranes, Membrane
Chain of Sigma non-opioid intracellular receptor 1 (Q60492 whole entry): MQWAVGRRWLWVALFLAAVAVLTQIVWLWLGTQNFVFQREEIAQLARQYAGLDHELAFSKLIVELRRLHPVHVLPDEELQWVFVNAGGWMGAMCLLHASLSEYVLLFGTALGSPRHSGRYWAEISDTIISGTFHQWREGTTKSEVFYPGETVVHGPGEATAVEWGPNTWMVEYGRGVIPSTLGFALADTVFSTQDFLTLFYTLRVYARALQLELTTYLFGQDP

HT-1080 = experiment: Antiproliferative activity against human HT1080 cells; type: functional, cell-based
MDA-MB-435 = experiment: Antiproliferative activity against human MDA435 cells; type: functional, cell-based

COc1ccc(Cn2ccc3ccc(C(=O)NO)cc32)cc1
GI50 (CCRF-HSB-2): 2400 to 4000 nM | GI50 (HuT78): 2400 to 4000 nM | GI50 (Jurkat): 2400 to 4000 nM | GI50 (MOLT-4): 2400 to 4000 nM

Fc1ccccc1N1CCN(CCCn2ccc3ccccc32)CC1
pKi [1]: 8.00

N[C@@H]1CSCON2CCc3c([nH]c4cc(Br)ccc34)[C@H]12
IC50 (P388): 0.01 µg/mL (≈ 0.0282 µM)

CCN(CC)CCCOc1cc(-c2ccc3[nH]cc(-c4ccnc(N)n4)c3c2)nc(N)n1
pIC50 [2]: 7.17

COc1ccc2[nH]cc(Cn3cc(COc4ccc(/C=C/C(=O)NO)cc4OC)nn3)c2c1
pIC50 (HCT-116): 5.21 to 5.45 | pIC50 (K562): 5.21 to 5.45 | pIC50 (LoVo): 5.21 to 5.45 | pIC50 (HepG2): 5.21 to 5.45 | pIC50 (Histone deacetylase 1): 7.11 | pIC50 (MCF7 [3]): 5.21 to 5.45

CN(C)CCCOc1cc(-c2ccc3[nH]cc(-c4ccnc(N)n4)c3c2)nc(N)n1
pIC50 [2]: 7.24

Cc1cn(CN2CCN(CCc3ccccc3)CC2)c2ccccc12
pKi [1]: 7.25

Clc1ccc(CN2CCN(Cc3c[nH]c4ccccc34)CC2)cc1Cl
pIC50 (MCF7 [4]): 5.53 | pKi [1]: ≥ 6.89 | pKi [5]: ≥ 6.89

O=C(CCCCCCNC(=O)c1cc2ccccc2[nH]1)NO
pIC50 (HT-1080): 6.85 | pIC50 (MDA-MB-435): 6.82
